According to patent US20230150951A1, “2,5- OR 2,6-DISUBSTITUTED HYDROQUINONE DERIVATIVES WITH AT LEAST ONE CARBOXY, SULFO OR AMIDO GROUP USEFUL AS MEDICAMENTS” (OM PHARMA SA, priority 2020, published 2023):

Columns and labels:
[1] = system: STZ-induced diabetes model; assay: STZ-induced diabetes and diabetic wound healing model; type: in vivo, CD-1 mice; settings: IV; vs induced vehicle controls
Protocol: Diabetes murine models using streptozotocin (STZ-induced diabetes) were used to assess efficacy of compounds of the present invention for a diabetic wound healing and generate tissue samples to allow post in-life analysis of skin tissue.
These were purchased from Charles River and acclimated for 7 days upon arrival.
Aseptic technique and dosing: Although animals to be used in this study are immuno-competent, preparation of dosing solutions and dosing/weighing of animals were carried out in a sterile biosafety cabinet. IV dosing: Compounds were formulated in 5% DMSO: 10% Solutol: 10% PEG400: 75% PBS and pH adjusted to 7 with 0.5M NaOH solution. PO dosing: formulation is in water.
Animals were anaethetised and a full thickness 6 mm wound created using a sterilized biopsy punch. Wounds were imaged (Days 0). Animals were treated and imaged every 2 days out to day 14 (when control, non-diabetic mouse wounds were healed). Wound images were digitally assessed for area of wound and percentage closure versus time plotted graphically.
Treatment will continue for 2 weeks (14 days). Animal numbers in brackets are dosed for 7 days, then sampled for mid-study PD analysis.
Mid Study sampling: Following 7 days dosing 3 animals per group were killed and wound tissue removed and divided into 2 sections (A) and (B):
(A) First section is FFPE and stained with the following: H&E, Masson's Trichrome, CD31, TGF-β.
(B) Second section are homogenised and used for the following ELISAs: SOD, GTPx, Catalase, TNF-α, IL-6, TGF-β levels.

human primary cells = assay: BioMap Plus phenotypic profiling in human primary cell-based systems; settings: 30, 10, 3.3, 1.1 μM
Protocol: A series of in vitro assays was performed using human primary cell-based assays modeling complex tissue and disease biology of organs (vasculature, immune system, skin, lung) and general tissue biology for phenotypic profiling of compounds in conditions that preserve crosstalk and feedback mechanisms relevant to in vivo outcomes.

[2] = system: thioglycolate-induced peritonitis; assay: Thioglycolate-induced peritonitis murine model; type: in vivo, C57BL/6J mice; settings: 50 mg/kg i.p. 1 h prior to thioglycolate
Protocol: Therapeutic efficacy of the compounds of the present invention was assessed using thioglycolate-induced peritonitis murine models as described by Cook A D et al. (J Immunol. 2003; 171(9):4816-4823) and Tsai J M et al. (Blood Adv. 2019; 3(18):2713-2721. doi: 10.1182/bloodadvances.2018024026).
C57BL/6J mice were injected intraperitoneally (i.p.) with 1 mL of compounds at 50 mg/kg 1 h prior to the induction of peritonitis. Peritonitis was then induced with 1 ml of sterile thioglycolate broth 4% (wt/vol) or PBS as control. After 3 h, mice were anesthetized by i.p. injection with a solution of PBS containing 5 mg/ml ketamine and 1 mg/ml xylazine and peritoneal cavities were washed with 5 ml ice-cold sterile Ca2+/Mg2+-free HBSS 1×containing EDTA 2 mM. Peritoneal exudate cells (PECs) were centrifuged at 1200 rpm for 5 min at 4° C. and red cells lysed. PECs were washed, resuspended in PBS 10% FBS, incubated with anti-CD16/CD32 and mIgG FcR blockers and then stained with fluorescently conjugated antibodies to characterize migrated leukocytes (anti-CD45, anti-CD11b, anti-Ly6G, anti-CD8a, anti-CD4, anti-CD3). Cell viability was measured by 7-AAD exclusion. Specimens were acquired by flow cytometry using MACSQuant Analyzer (Miltenyi Biotec) and analysed using FlowJo software.
Animals: four C57BL/6J mice per group for each compound versus four vehicle treated mice.
Read out was done 1 h after thioglycolate injection.
Readout method: flow cytometry to characterise migrated leukocytes using anti-CD45, anti-CD11b, anti-Ly6G, anti-CD8a, anti-CD4, anti-CD3.
Results and statistical analysis: Results were analysed using FlowJo software. Data were shown as mean±SEM. Two-tailed Student's t test using a significance level of 0.05 is used for the statistical analysis.

ARPE-19 cells = assay: Outer blood retinal barrier: ARPE-19 monolayer permeability to FITC-dextran; type: cell-based, human; settings: for p < 0.05 (ARPE19 permeability versus diabetic milieu): IL-β, after 90 min
Text: The mechanisms of actions involved in the anti-permeability effect of the tested treatments were explored by assessing permeability to fluorescent dextran and proinflammatory cytokines production using their mRNA expression levels by RT-PCR.
Outer Blood Retinal Barrier conditions: human retinal pigment epithelial cells (RPE) cultures ARPE-19, a spontaneously immortalised human RPE cell line were obtained from American Type Culture Collection (Manassas, Va., USA). ARPE-19 cells and they were cultured in euglycaemic conditions (D-glucose (D-Glc), 5.5 mmol/L) and hyperglycaemic conditions (D-glucose, 25 mmol/L) for 18 days at 37° C. under 5% (vol./vol.) CO2 in medium (DMEM/F12) supplemented with 10% (vol./vol.) FBS (Hyclone; Thermo Fisher Scientific, UT, USA) and 1% (vol./vol.) penicillin/streptomycin (Hyclone; Thermo Fisher Scientific). ARPE-19 cells from passage 20 were used and the medium changed every 3-4 days. For permeability studies, ARPE-19 cells were seeded at 400,000 cells/ml (80,000 RPE cells/well) in 0.33 cm^2 HTS-Transwells (Costar; Corning, N.Y., USA). For real-time PCR, western blot analysis and immunofluorescence cells are seeded at 20,000 cells/ml.
Experimental conditions and treatments: apart from the euglycemic condition, eighteen different conditions were tested in cells cultured under 25 mmol/L D-glucose:
Condition 2) Cells are treated with diabetic milieu 25 mM D-Glucose+vehicle (days 15, 16 and 17 at one application/day) in order to evaluate their effect in preventing the cell damage provoked by the diabetic milieu.
Condition 9) Cells were treated with 25 mM D-Glucose and bevacizumab (0.2 mg/ml) for 72 h (days 15, 16 and 17 at one application/day) to evaluate their potential cytotoxic effects.
Condition 10)=Diabetic milieu; cells were treated with 25 mM D-Glucose+[…] (10 ng/ml)+TNF-α (25 ng/ml)+VEGF (25 ng/ml), for 48 h (days 16 and 17 at one application/day) in order to provoke the disruption of the monolayer.
Condition 17) Cells are treated with diabetic milieu (25 mM D-Glucose+IL-1β (10 ng/ml)+TNF-α (25 ng/ml)+VEGF (25 ng/ml))+bevacizumab (0.2 mg/mL) (days 15, 16 and 17 at one application/day) in order to evaluate their effect in preventing the cell damage provoked by the diabetic milieu.
Measurement of ARPE-19 permeability: The permeability of RPE cells was determined at 18 days by measuring the apical-to basolateral movements of FITC-dextran (40 kDa) (Sigma, St Louis, […]., USA) following a procedure previously reported by Villarroel et al. Exp Eye Res, 2009, 89, 913-920.

[3] = No 3-5: 25 mM D-Gluc + compound 25 μg/mL
[4] = No 6-8: 25 mM D-Gluc + compound 50 μg/mL + VEGF, TNF-α, (so in the source)
[5] = No 11-13: 25 mM D-Gluc + compound 25 μg/mL + VEGF, TNF-α, (diabetic milieu)
[6] = No 11-13: compound 25 μg/mL + VEGF, TNF-α
[7] = No 14-16: 25 mM D-Gluc + compound 50 μg/mL + VEGF, TNF-α, (diabetic milieu)
[8] = No 14-16: compound 50 μg/mL + VEGF, TNF-α

| Structure (SMILES) | Blood glucose levels [1] | Antiproliferative effects on human primary cells (human primary cells) | Cytotoxicity in BioMap Plus (human primary cells) | Immunomodulatory activities (human primary cells) | Inflammation-related activities (human primary cells) | Number of annotated readouts (human primary cells) | % of reduction, CD4+ lymphocytes, treated over vehicle treated mice [2] [%] | % of reduction, CD8+ lymphocytes, treated over vehicle treated mice [2] [%] | % of reduction, Leukocytes (CD45+ cells), treated over vehicle treated mice [2] [%] | % of reduction, PMNs (CD11b-Ly6G double + cells), treated over vehicle treated mice [2] [%] | % permeability ARPE19 (ARPE-19 cells; [3]) [%] | % permeability ARPE19 (ARPE-19 cells; [4]) [%] | % permeability ARPE19 (ARPE-19 cells; [5]) [%] | p < 0.05 (ARPE19 permeability versus diabetic milieu) (ARPE-19 cells; [6]) | % permeability ARPE19 (ARPE-19 cells; [7]) [%] | Tissue remodeling activities (human primary cells) | p < 0.05 (ARPE19 permeability versus diabetic milieu) (ARPE-19 cells; [8]) | other results |
| --- | --- | --- | --- | --- | --- | --- | --- | --- | --- | --- | --- | --- | --- | --- | --- | --- | --- | --- |
| O=C(O)c1cc(O)c(C(=O)Nc2ccccc2C(=O)O)cc1O [Ia-001a, 4-(2-carboxyphenylaminocarbonyl)-2,5-dihydroxybenzoic acid] | significant reduction | – | – | – | – | – | – | – | – | – | – | – | – | – | – | – | – | – |
| O=C(O)c1cc(O)cc(CS(=O)(=O)Cc2cc(O)cc(C(=O)O)c2O)c1O [IVc-059a, 3-((2,5-Dihydroxy-3-carboxyphenyl)methylsulfonylmethyl)-2,5-dihydroxybenzoic acid] | significant reduction | antiproliferative to human primary endothelial cells (1.1 μM) | not cytotoxic | decreased sIL-10, sIL-2 | decreased sTNFα | three | 6.0 | 23.0 | 4.0 | −13.0 | 70.2 ± 8.8 | 112.6 ± 19.8 | 98.5 ± 36.5 | * (* p < 0.05 for FITC dextran leakage measured after 90 min in [ng/mL/cm^2] in comparison with diabetic milieu (25 mM D-Gluose + VEGF, TNF-α, IL-β)) | 130.4 ± 24.8 | – | – | – |
| O=C(O)c1cc(O)c(CN(Cc2cc(O)c(C(=O)O)cc2O)Cc2cc(O)c(C(=O)O)cc2O)cc1O [IIIc-061a, Tris(4-carboxy-2,5-dihydroxyphenylmethyl)amine] | significant reduction | did not have any antiproliferative effects | not cytotoxic | decreased sIL-17A | decreased I-TAC, MIG | six | 42.9 | 33.3 | −2.4 | −8.3 | – | – | – | – | – | decreased Collagen I, Collagen III, PAI-1 | – | – |
| O=C(O)c1cc(NC(=O)c2cc(O)c(C(=O)Nc3ccc(O)c(C(=O)O)c3)cc2O)ccc1O [Ic-007a, 5-(4-(3-carboxy-4-hydroxyphenylaminocarbonyl)-2,5-dihydroxybenzamido)-2-hydroxy benzoic acid] | – | antiproliferative to human primary T cells (30 μM) and fibroblasts (30 μM, 10 μM, 3.3 μM, 1.1 μM) | not cytotoxic | decreased CD40, M-CSF | decreased VCAM-1, sTNFα, MIP-1α, I-TAC, MIG; increased IL-8; modulated IP-10 | 20 | 35 | 71 | 48 | 80 | 75.2 ± 11.1 | 107.3 ± 43.9 | 103.7 ± 15.7 | * (* p < 0.05 for FITC dextran leakage measured after 90 min in [ng/mL/cm^2] in comparison with diabetic milieu (25 mM D-Gluose + VEGF, TNF-α, IL-β)) | 127.1 ± 13.5 | decreased Collagen I, Collagen IV, TIMP-1, tPA, Collagen III, PAI-1, uPAR, bFGF | * (* p < 0.05 for FITC dextran leakage measured after 90 min in [ng/mL/cm^2] in comparison with diabetic milieu (25 mM D-Gluose + VEGF, TNF-α, IL-β)) | Cell counts, CD4+ lymphocytes, treated mice ([2]; peritoneal exudate cells): 1.03 × 10^4; Cell counts, CD8+ lymphocytes, treated mice ([2]; peritoneal exudate cells): 0.54 × 10^4; Cell counts, Leukocytes (CD45+ cells), treated mice ([2]; peritoneal exudate cells): 31.3 × 10^4; Cell counts, PMNs (CD11b-Ly6G double + cells), treated mice ([2]; peritoneal exudate cells): 2.03 × 10^4 |
| O=C(O)c1cc(NC(=O)c2cc(O)cc(C(=O)Nc3ccc(O)c(C(=O)O)c3)c2O)ccc1O [IIc-007a, 5-(3-(3-carboxy-4-hydroxyphenylaminocarbonyl)-2,5-dihydroxybenzamido)-2-hydroxy benzoic acid] | – | did not have any antiproliferative effects | not cytotoxic | decreased sIL-10, sIL-2 | decreased sTNFα, MIP-1α; increased IL-8; modulated MCP-1 | 12 | 40.0 | 20.0 | 11.8 | 27.3 | 66.1 ± 4.9 | 113.1 ± 11.4 | 114.7 ± 19.0 | * (* p < 0.05 for FITC dextran leakage measured after 90 min in [ng/mL/cm^2] in comparison with diabetic milieu (25 mM D-Gluose + VEGF, TNF-α, IL-β)) | 136.8 ± 13.0 | decreased Collagen I, Collagen IV, Collagen III, PAI-1 | * (* p < 0.05 for FITC dextran leakage measured after 90 min in [ng/mL/cm^2] in comparison with diabetic milieu (25 mM D-Gluose + VEGF, TNF-α, IL-β)) | – |
